# Tested on: plasmid pCMV/mEPO
# Experiment: Gel electrophoresis of complexes of plasmid and fluorescently labelled polyamides
# Assay type: binding
# Conditions: agarose gel, after 10 min or 5 hr incubation; control rhodamine-peptide
# Description: The ability of the polyamides to bind the DNA plasmid was assessed by gel electrophoresis of complexes of plasmid and fluorescently labelled polyamides.
# A plasmid pCMV/mEPO was constructed by inserting the mouse EPO (mEPO) coding sequence as a EcoRI-BamHI 0.6 Kb fragment into pViJnsB (Montgomery, D. L., Shiver J. W., Leander K. R., Perry, H. C., Friedman, A., Martinez, D., Ulmer, J. B., Donnelly, J. J., Liu, M. A. (1993) DNA Cell. Biol. 12, 777-783.), which contains the CMV immediate/early region promoter and enhancer with intron A followed by the BGH polyadenylation signal. The mouse EPO coding region including 40 bp of the 5′ untranslated region (Shoemaker, C. B., & Mitsock, L. D. (1986) Mol. Cell. Biol. 6, 849-858) was assembled from synthetic oligonucleotides as described (Stemmer, W. P. C, Crameri, A., Ha, K. D., Brennan, T. M., & Heyneker, H. L. (1995) Gene 164, 49-53.).
# In a typical experiment either the rhodamine labelled polyamide (33), the peptide-polyamide (35) and the correspondent rhodamine-peptide as control, were dissolved in DMSO at a 0.55 mM concentration. Serial dilutions of the polyamides and the peptide were prepared in DMSO. The plasmid stock solution was 0.54 μM. […]
substance,measurement,value
Rhodamine-Aoc-Pro-Lys-Lys-Lys-Arg-Lys-Val-Gluu-Asp-Pro-Tyr-Lys(Br—CH2—CO)-Gly-Gly-CO—NH2 [compound 34],co-migration of the fluorescent label with the plasmid,does not co-migrate with the plasmid
